The text below walks through data of BindingDB's records for doi:10.1074/jbc.M203194200 (Tanabe Seiyaku, 2002).

Usually Ki stands for a measure of affinity in units of concentration, obtained from inhibition or displacement. Low values mean tighter binding, high ones weaker binding.

For the test, the target named is Oxoeicosanoid receptor 1 (Homo sapiens, UniProt Q8TDS5).

Molecules are shown by their SMILES.

Oxoeicosanoid receptor 1, sequence (Q8TDS5 as listed by the source): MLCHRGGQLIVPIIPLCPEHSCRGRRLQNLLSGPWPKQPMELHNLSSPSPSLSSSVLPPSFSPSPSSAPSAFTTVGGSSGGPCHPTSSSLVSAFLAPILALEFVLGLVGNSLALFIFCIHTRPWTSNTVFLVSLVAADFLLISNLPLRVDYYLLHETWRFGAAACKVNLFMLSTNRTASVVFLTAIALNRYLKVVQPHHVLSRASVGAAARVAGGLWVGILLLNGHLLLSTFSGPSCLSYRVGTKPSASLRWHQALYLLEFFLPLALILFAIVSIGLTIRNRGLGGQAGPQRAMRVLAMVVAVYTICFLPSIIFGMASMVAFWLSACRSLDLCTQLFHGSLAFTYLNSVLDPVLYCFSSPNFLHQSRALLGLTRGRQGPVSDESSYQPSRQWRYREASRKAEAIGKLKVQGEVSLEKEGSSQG

The molecule `CC/C=C\C/C=C\C/C=C\C/C=C\C/C=C\CCCC(=O)O` [5,8,11,14,17-EICOSAPENTAENOIC ACID] displayed a Ki of 6 µM.

With `CCCCC/C=C\C/C=C\C/C=C\CCCCCCC(=O)O` [(Z,Z,Z)-8,11,14-Eicosatrienoic acid], the Ki stood at 3.7 µM.

`CC/C=C\C/C=C\C/C=C\C/C=C\C/C=C\C/C=C\CCC(=O)O` [all-cis-docosa-4,7,10,13,16,19-hexaenoic acid]: the affinity corresponds to a Ki of 1.6 µM.
